From US20230235378A1, “LZHEIMER'S DISEASE-SPECIFIC ALTERATIONS OF PROTEIN KINASE C EPSILON (PKC-EPSILON PROTEIN LEVELS” (WEST VIRGINIA UNIVERSITY BOARD OF GOVERNORS ON BEHALF OF …, priority 2010, published 2023) come the findings set out here.

For one experiment, the target named is T1, PKCε (Homo sapiens, UniProt Q02156).
T1 construct: purchased Calbiochem (San Diego, Calif.)
T1 sequence (Q02156 1-737): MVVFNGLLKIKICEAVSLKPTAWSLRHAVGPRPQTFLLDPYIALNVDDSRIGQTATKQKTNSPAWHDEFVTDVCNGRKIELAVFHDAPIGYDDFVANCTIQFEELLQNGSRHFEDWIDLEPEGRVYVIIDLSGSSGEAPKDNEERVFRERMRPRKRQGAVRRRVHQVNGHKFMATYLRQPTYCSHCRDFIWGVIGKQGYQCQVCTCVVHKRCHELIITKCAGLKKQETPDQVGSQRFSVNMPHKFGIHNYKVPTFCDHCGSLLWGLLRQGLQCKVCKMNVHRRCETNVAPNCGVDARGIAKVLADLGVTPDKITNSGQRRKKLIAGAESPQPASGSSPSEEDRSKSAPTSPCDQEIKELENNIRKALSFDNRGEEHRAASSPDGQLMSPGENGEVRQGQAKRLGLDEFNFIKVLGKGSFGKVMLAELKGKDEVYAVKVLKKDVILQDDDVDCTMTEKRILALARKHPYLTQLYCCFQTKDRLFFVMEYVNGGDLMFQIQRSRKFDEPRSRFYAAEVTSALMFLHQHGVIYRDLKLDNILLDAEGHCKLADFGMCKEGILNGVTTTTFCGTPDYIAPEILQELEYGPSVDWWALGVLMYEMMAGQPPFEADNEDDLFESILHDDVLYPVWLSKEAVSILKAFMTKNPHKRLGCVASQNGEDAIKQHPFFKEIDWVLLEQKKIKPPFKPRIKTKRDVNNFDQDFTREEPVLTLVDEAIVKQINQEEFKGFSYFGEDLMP
In words: Protein kinase C assay with recombinant PKC epsilon isoform ([γ32P]ATP, histones). The class given is biochemical. To be noted: lowest concentration tested (10 nM). The procedure: Protein Kinase C Assay. Recombinant PKC (1 ng of alpha or epsilon isoform) was mixed with the BR-101 (DCP-LA) in the presence of 10 micromolar histones, 5 mM CaCl2, 1.2 μg/μl phosphatidyl-L-serine, 0.18 μg/μl 1,2-dioctanoyl-sn-glycerol (DAG), 10 mM MgCl2, 20 mM HEPES (pH 7.4), 0.8 mM EDTA, 4 mM EGTA, 4% glycerol, 8 μg/ml aprotinin, 8 μg/ml leupeptin, and 2 mM benzamidine. 0.5 micro Ci [γ32P]ATP was added. The incubation mixture was incubated for 15 min at 37 degrees in a total volume of 10 microliters. The reaction was stopped by spotting the reaction mixtures on 1×2 cm strips of cellulose phosphate paper (Whatman P81) and immediately washing twice for 1 hr in 0.5% H3PO4. The cellulose phosphate strips were counted in a scintillation counter. In some experiments, phosphatidylserine, diacylglycerol, and/or calcium were removed.

The test system of another experiment is other PKC isoforms. The experiment is described as follows: PKC isozyme specificity: other PKC isoforms. The class given is biochemical. The following applies: 10 μM; data not shown. The procedure: (§1) Protein Kinase C Assay. Rat hippocampal cells were cultured and scraped in 0.2 ml homogenization buffer (20 mM Tris-HCl, pH 7.4, 50 mM NaF, 1 μg/ml leupeptin, and 0.1 mM PMSF) and homogenized by sonication in a Marsonix micro-probe sonicator (5 sec, 10 W). To measure PKC, 10 μl of cell homogenate or purified PKC isozyme (purchased from Calbiochem) was incubated for 15 min at 37° C. in the presence of 10 μM histones, 4.89 mM CaCl2, 1.2 μg/μl phosphatidyl-L-serine, 0.18 μg/μl 1,2-dioctanoyl-sn-glycerol, 10 mM MgCl2, 20 mM HEPES (pH 7.4), 0.8 mM EDTA, 4 mM EGTA, 4% glycerol, 8 μg/ml aprotinin, 8 μg/ml leupeptin, and 2 mM benzamidine. 0.5 μCi [γ-32P]ATP was added and 32P-phosphoprotein formation was measured by adsorption onto phosphocellulose as described previously. Nelson and Alkon, J. Neurochemistry. 1995; 65: 2350-57. For measurements of activation by BR-101 (DCP-LA) and similar compounds, PKC activity was measured in the absence of diacylglycerol and phosphatidylserine, as described by Kanno et al., and PKC δ, ε, η, and were measured in the absence of added EGTA and CaCl2, as described by Kanno et al., J. Lipid Res. 2006; 47: 1146-50. […]
(§2) To determine their PKC isozyme specificity, the new compounds were preincubated with purified PKC for five minutes and the PKC activity was measured radiometrically.

For a further experiment, the target named is T2, PKCγ (Homo sapiens, UniProt P05129).
T2 construct: purchased Calbiochem
In words: PKC isozyme specificity: PKCγ. The class given is biochemical. To be noted: 50-100 μM; data not shown. The procedure: as §1, §2

For experiment [1], the system named is Endothelin-converting enzyme (ECE). The experiment is described as follows: ECE assay in neuroblastoma cells (fluorimetric, McaBK2). The class given is cell-based, human. The following applies: bryostatin 0.27 nM, BR-101 1 μM, BR-111 1. On the procedure: ECE Assay. SH-5757 neuroblastoma cells were incubated with bryostatin (0.27 nM), BR-101 (DCP-LA) (1 μM), and BR-111 (DHA-CP6) (1 Endothelin-converting enzyme (ECE) was measured fluorimetrically using the method of Johnson and Ahn, Anal. Biochem. 2000; 286: 112-118. A sample of cell homogenate (20 μl) was incubated in 50 mM MES-KOH, pH 6.0, 0.01% C 12E10 (polyoxyethylene-10-lauryl ether), and 15 μM McaBK2 (7-Methoxycoumarin-4-acetyl [Ala7-(2,4-Dinitrophenyl)Lys9]-bradykinin trifluoroacetate salt) (Sigma-Aldrich). After 60 min at 37° C., the reaction was quenched by adding trifluoroacetic acid to 0.5%. The sample was diluted to 1.4 ml with water and the fluorescence was measured at ex=334 nm, em=398 nm.

For the molecule `CCCCCC1CC1CC1CC1CCCCCCCC(=O)O` (stereo not shown) [BR-101, 8-[2-(2-pentyl-cyclopropylmethyl)-cyclopropyl]-octanoic acid], the “activation of PKCε” value on PKCε came to 2.75 fold. The “effects on the other PKC isoforms” value in the experiment with other PKC isoforms was “relatively small effects”. Also, the “effect on PKCγ at higher concentrations” value on PKCγ was “activated”. The “change in ECE activity” value in experiment [1] was “sustained increase”.
